# “Also recorded” adds a separate entry of the source.
# Columns and labels:
# mice [1] = test: Effect of inhibitor pretreatment on LPA-, LPC- or miR-146a-induced scratching behavior; assay type: in vivo, mouse; details: for effect on scratching evoked by i.d. miR-146a (4 nmol) (TLR inhibitors): i.p. 10 mg/kg
# Procedure: Behavioral assessment. Mice were shaved at the dorsal neck 1 d before experiments. […] After injections, mice were immediately placed back to the chamber, and the scratching behavior was recorded by a Panasonic video camera for 30 min. Hind limb scratching behavior directed toward the injected area at the nape of neck was observed. One scratch is defined as a lifting of the hind limb toward the injection site and then a replacing of the limb back to the floor, regardless of how many scratching strokes take place between those two movements. Behavioral analysis was conducted by observers blinded to genotype.
# Control animals received the same volume of vehicles.
# Lumbar puncture was made with a 30G-needle and drugs at 5 μL of volume were delivered. Scratching behavior assay was started approximately 2 weeks after resiniferatoxin treatment.
# mice [2] = test: Scratching behavior after i.d. injection into dorsal neck skin; assay type: in vivo, mouse; details: for scratching behavior (itch) induced by i.d. injection of lipid: i.d. into dorsal neck, LPA 18:1 500 μg, LPC 50-500 μg, LPC species at the same dose
# Procedure: Behavioral assessment. Mice were shaved at the dorsal neck 1 d before experiments. Mice were allowed to acclimate to a Plexiglas chamber for at least 30 min before testing and received intradermal (i.d.) injection of 50 μL of LPA 18:1, LPC, LPC 14:0, LPC 16:0, LPC 18:0, LPC 18:1, miR-146a mimic, miR-146a scramble, ATP or vehicles through a 30-gauge needle (Becton Dickinson, Franklin Lakes, NJ) into the neck skin. After injections, mice were immediately placed back to the chamber, and the scratching behavior was recorded by a Panasonic video camera for 30 min. Hind limb scratching behavior directed toward the injected area at the nape of neck was observed. One scratch is defined as a lifting of the hind limb toward the injection site and then a replacing of the limb back to the floor, regardless of how many scratching strokes take place between those two movements. Behavioral analysis was conducted by observers blinded to genotype.
# human keratinocytes = test: Ca2+ imaging in cultured human keratinocytes; assay type: cell-based; details: for LPA (18:1) induced Ca2+ influx: up to 30 μM; for effect on LPC 18:1 (10 μM)-induced Ca2+ influx (GPCR-signaling inhibitors): inhibitor 10 μM
# Procedure: In brief, surgically discarded foreskin samples, obtained from Duke Children's Hospital in accordance to institutionally approved IRB protocol, were incubated with Dispase (Gibco, Gaithersburg, MD, 4 U/mL) for 12-16 h at 4° C. followed by 0.05% trypsin (Gibco, Gaithersburg, MD) for 10-20 min at 37° C. Cells were maintained in keratinocyte serum-free media (Invitrogen, Waltham, MA) with 5% CO2 at 37° C. and used at passage 2-3.
# (§1) In vitro and ex vivo Ca^2+ imaging. […] Ca^2+ imaging of cultured cells in response to chemicals was conducted after loading with 5 μM Fura2-AM (Invitrogen, Waltham, MA) for 45 min after a ratiometric Ca^2+-imaging protocol with 340/380-nm blue light for dual excitation. Ratios of emissions were acquired at 0.5 Hz. ΔR/R0 was determined as the fraction of the increase of a given ratio over baseline ratio divided by baseline ratio. […] Control cells received vehicles.
# mouse keratinocytes = test: Ca2+ imaging in cultured mouse keratinocytes; assay type: cell-based; details: for LPA (18:1) induced Ca2+ influx: up to 30 μM; for effect on LPC 18:1 (10 μM)-induced Ca2+ influx (GPCR-signaling inhibitors): inhibitor 10 μM
# Procedure: Basal keratinocytes were separated from the cornified sheets by filtration through a […] cell strainer. Keratinocytes were plated on collagen I-coated dishes or glass coverslips and grown in EME media (Gibco, Gaithersburg, MD) containing 8% chelex (Bio-rad, Hercules, CA)-treated FBS with the final Ca^2+ adjusted to 0.05 mM, bovine pituitary extract (50 μg/mL), epidermal growth factor (5 ng/mL), and lx antibiotics/antimycotics (Gibco, Gaithersburg, MD) in a humidified incubator with 5% CO2 at 37° C. for 5-7 days until use. To knockdown Trpv4 in isolated keratinocytes from newborn keratinocyte-Trpv4 cKO mice, cells were treated with 4-OH tamoxifen at 500 nM for 72 h.
# as §1
# hTRPV4 = biological target: T1, hTRPV4 (Homo sapiens, UniProt Q9HBA0); test: Ca2+ imaging in HEK cells transfected with hTRPV4; assay type: cell-based; details: inhibitor 10 μM
# T1 construct: expressed in transfected cells; host or cells: HEK293 (ATCC CRL-1573)
# Procedure: Cell culture and transfection. HEK293 cells (ATCC® CRL-1573) were cultured on poly-D-lysine coated coverslips in 24-well plate containing DMEM media with high-Glucose (Gibco, Gaithersburg, MD) supplemented with 10% fetal bovine serum (FBS, HyClone Laboratories, Logan, UT) and 100 U/mL of penicillin/streptomycin (Gibco, Gaithersburg, MD). Cell cultures were maintained with 5% of CO2 in a humidified incubator at 37° C. HEK cells were transfected with rat or human wild type or mutant TRPV4 channels with EGFP or YFP coupled to their C-termini (1.5 μg of plasmid for excised patch clamp and Ca^2+ imaging and 200 ng for single-channel experiments). The jetPEI™ Polyplus transfection reagent (Polyplus Transfection, New York, NY) for electrophysiology or Lipofectamine™ 2000 Reagent (Invitrogen, Waltham, MA) for Ca^2+ imaging were used for transfections per manufacturer's instructions as previously described (Chen et al. Pain 2014, 155, 2662-2672; Morales-Lazaro et al. Nat. Commun. 2016, 7, 13092). To investigate whether miR-146a can directly activate TRPV1 channels or indirectly via TLRs, HEK293 cells were transfected with rTRPV1 or co-transfected rTRPV1 with rTLR7, rTLR2, or rTLR6 (Addgene, Watertown, MA) for Ca^2+ imaging assay. Control cells were transfected with GFP or YFP.
# In vitro and ex vivo Ca^2+ imaging. Routine procedures were followed for Ca^2+ imaging in cultured DRG sensory neurons, epidermal keratinocytes, and HEK cells (Chen et al. J. Biol. Chem. 2016, 291, 10252-10262; Chen et al. Pain 2014, 155, 2662-2672). Ca^2+ imaging of cultured cells in response to chemicals was conducted after loading with 5 μM Fura2-AM (Invitrogen, Waltham, MA) for 45 min after a ratiometric Ca^2+-imaging protocol with 340/380-nm blue light for dual excitation. Ratios of emissions were acquired at 0.5 Hz. ΔR/R0 was determined as the fraction of the increase of a given ratio over baseline ratio divided by baseline ratio. To investigate the effects of the TRPV4 inhibitors GSK205 or HC067047, the PLC inhibitor U73122, the Gag G Protein inhibitor BIM46187, the Gβγ G protein inhibitor Gallein, the TRPV1 inhibitor SB366791, the TRPA1 inhibitor HC030031, and IPP for TRPV3, on LPA-induced Ca^2+ influx, LPC-induced Ca^2+ influx, or miR-146α-induced Ca^2+ influx, cells were incubated with the inhibitors for 15 min before stimulation. Control cells received vehicles.
# T1 sequence (Q9HBA0 whole entry): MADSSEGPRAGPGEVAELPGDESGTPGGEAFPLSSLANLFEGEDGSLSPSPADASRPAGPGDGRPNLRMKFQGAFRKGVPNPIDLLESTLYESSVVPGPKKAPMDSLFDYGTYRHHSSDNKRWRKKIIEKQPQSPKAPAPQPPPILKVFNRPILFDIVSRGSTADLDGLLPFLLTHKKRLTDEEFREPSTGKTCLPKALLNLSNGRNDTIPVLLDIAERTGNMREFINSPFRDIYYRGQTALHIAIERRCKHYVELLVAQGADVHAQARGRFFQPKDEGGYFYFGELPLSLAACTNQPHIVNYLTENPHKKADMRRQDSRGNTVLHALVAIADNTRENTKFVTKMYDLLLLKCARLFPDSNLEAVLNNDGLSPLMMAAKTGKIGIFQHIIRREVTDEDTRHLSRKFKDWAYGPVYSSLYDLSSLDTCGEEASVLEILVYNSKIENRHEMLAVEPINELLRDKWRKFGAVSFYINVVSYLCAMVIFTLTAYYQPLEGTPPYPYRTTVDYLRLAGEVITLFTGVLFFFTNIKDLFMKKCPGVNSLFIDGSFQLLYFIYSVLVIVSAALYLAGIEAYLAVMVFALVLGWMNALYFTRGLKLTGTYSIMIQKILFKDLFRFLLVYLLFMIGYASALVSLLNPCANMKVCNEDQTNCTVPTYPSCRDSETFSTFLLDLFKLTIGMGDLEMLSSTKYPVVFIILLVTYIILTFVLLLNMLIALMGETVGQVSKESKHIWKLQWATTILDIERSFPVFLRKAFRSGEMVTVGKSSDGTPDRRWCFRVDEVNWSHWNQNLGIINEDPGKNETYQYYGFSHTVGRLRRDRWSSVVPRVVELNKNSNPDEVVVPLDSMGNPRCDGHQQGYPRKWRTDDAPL
compound,measurement,setting,value
O=C(CCN1CCN(C(=O)OCc2cc(Cl)cc(Cl)c2)CC1)c1ccc2[nH]c(=O)oc2c1 [PF8380],"effect on LPC-induced itch (autotaxin inhibitor), WT mice","mice [1]; i.p. pretreatment 10 mg/kg, WT mice",attenuated
LPC 14:0,scratching behavior (itch) induced by i.d. injection of lipid,mice [2],caused robust itch
lysophosphatidic acid [LPA (18:1)],scratch bouts,"mice [2]; i.d. 500 μg into dorsal neck, WT mice",58 scratch bouts in 30 min
same,scratching behavior (itch) induced by i.d. injection of lipid,mice [2],elicited moderate scratching; also recorded: induced itch
same,LPA (18:1) induced Ca2+ influx,human keratinocytes,not dose-dependent and was less robust than that of LPC
same,LPA (18:1) induced Ca2+ influx,human keratinocytes; listed as LPA,much reduced
same,LPA (18:1) induced Ca2+ influx,mouse keratinocytes,not dose-dependent and was less robust than that of LPC
same,LPA (18:1) induced Ca2+ influx,mouse keratinocytes; listed as LPA,much reduced
N[C@@H](CSSC[C@H](N)C(=O)N1CCn2cc(-c3ccccc3)nc2[C@@H]1CC1CCCCC1)C(=O)N1CCn2cc(-c3ccccc3)nc2[C@@H]1CC1CCCCC1 [BIM46187],effect on LPC 18:1 (10 μM)-induced Ca2+ influx (GPCR-signaling inhibitors),human keratinocytes,not significantly altered
same,effect on LPC 18:1 (10 μM)-induced Ca2+ influx (GPCR-signaling inhibitors),human keratinocytes; listed as BIM-46187,no inhibitory effects
same,effect on LPC 18:1 (10 μM)-induced Ca2+ influx (GPCR-signaling inhibitors),hTRPV4,not significantly altered
same,effect on LPC 18:1 (10 μM)-induced Ca2+ influx (GPCR-signaling inhibitors),hTRPV4; listed as BIM-46187,no inhibitory effects
same,effect on LPC 18:1 (10 μM)-induced Ca2+ influx (GPCR-signaling inhibitors),mouse keratinocytes,not significantly altered
same,effect on LPC 18:1 (10 μM)-induced Ca2+ influx (GPCR-signaling inhibitors),mouse keratinocytes; listed as BIM-46187,no inhibitory effects
COc1ccc2c(c1)CC[C@@H]1[C@@H]2CC[C@]2(C)[C@@H](NCCCCCCN3C(=O)C=CC3=O)CC[C@@H]12 [U73122],effect on LPC 18:1 (10 μM)-induced Ca2+ influx (GPCR-signaling inhibitors),human keratinocytes,no inhibitory effects; also recorded: not significantly altered
same,effect on LPC 18:1 (10 μM)-induced Ca2+ influx (GPCR-signaling inhibitors),hTRPV4,no inhibitory effects; also recorded: not significantly altered
same,effect on LPC 18:1 (10 μM)-induced Ca2+ influx (GPCR-signaling inhibitors),mouse keratinocytes,no inhibitory effects; also recorded: not significantly altered
"Nc1ncnc2c1ncn2[C@@H]1O[C@H](COP(=O)(O)OP(=O)(O)OP(=O)(O)O)[C@@H](O)[C@H]1O [ATP, adenosine triphosphate]",scratching behavior induced by i.d. ATP,mice [2]; i.d. 10 nmol or 100 nmol vs normal saline,not to have any pruritogenic effects; also recorded: did not elicit significant scratching behaviors
O=C1OC2(c3ccccc31)c1ccc(O)c(O)c1Oc1c2ccc(O)c1O [Gallein],effect on LPC 18:1 (10 μM)-induced Ca2+ influx (GPCR-signaling inhibitors),human keratinocytes,no inhibitory effects; also recorded: not significantly altered
same,effect on LPC 18:1 (10 μM)-induced Ca2+ influx (GPCR-signaling inhibitors),hTRPV4,no inhibitory effects; also recorded: not significantly altered
same,effect on LPC 18:1 (10 μM)-induced Ca2+ influx (GPCR-signaling inhibitors),mouse keratinocytes,no inhibitory effects; also recorded: not significantly altered
O=C(O)CC1CC(c2ccccc2)=NO1 (centres unmarked) [GIT27],effect on scratching evoked by i.d. miR-146a (4 nmol) (TLR inhibitors),mice [1],not significantly altered
c1cc(-c2nc3ccc(OCCCN4CCCC4)cc3o2)ccc1OCCCN1CCCC1 [E6446],effect on scratching evoked by i.d. miR-146a (4 nmol) (TLR inhibitors),mice [1],not significantly altered
